Laboratory results published in EPA's ToxValDB 9.5 (doi:10.2903/j.efsa.2010.1682).
In brackets after ≈: the same amount, converted by molar mass.

What was measured:
Allium cepa = conditions: not reported; seedling emergence
Apis mellifera = conditions: acute, duration: 72 hours, mortality
Bibionidae = conditions: chronic/long-term
Canidae = conditions: oral, Dog Other, organ weight
Cucumis sativus = conditions: not reported; seedling emergence
Daphnia magna = conditions: chronic/long-term; duration: 21 days; reproduction
Typhlodromus pyri = conditions: not reported

Which LEL (Allium cepa) does the source give for `CCCCC(C#N)(Cn1cncn1)c1ccc(Cl)cc1` (centres undefined) [Myclobutanil] here?
The LEL was 300 g/ha.

What about the NOEC (Anas platyrhynchos; reproductive) of the same compound?
Its NOEC is 31.6 mg/kg-day.

What about the LC50 (Anas platyrhynchos; short-term, oral, feed, mortality) of the same compound?
Its LC50 is > 1540 mg/kg-day.

What about the LD50 (Apis mellifera; dermal) of the same compound?
The LD50 was > 39.6 µg/piece.

And the LD50 (Apis mellifera; oral, unspecified)?
Its LD50 is > 33.9 µg/piece.

And the NOEC (Bibionidae)?
Its NOEC is 6.07 mg/kg.

And the NOEC (Bibionidae; duration: 30 days)?
Its NOEC is 4.98 mg/L.

What about the NOAEL (Canidae; chronic, duration: 1 years) of the same compound?
The NOAEL was 3.09 mg/kg-day.

What about the NOAEL (Canidae; subchronic, duration: 90 days) of the same compound?
Its NOAEL is 3.09 mg/kg-day.

What about the LC50 (Colinus virginianus; acute, oral, diet, mortality) of the same compound?
Its LC50 is > 567 mg/kg-day.

And the LD50 (Colinus virginianus; acute, oral, mortality)?
Its LD50 is 510 mg/kg-day.

What about the NOEC (Colinus virginianus; reproduction developmental) of the same compound?
Its NOEC is 24.2 mg/kg-day.

And the LEL (Cucumis sativus)?
The LEL was 300 g/ha.

And the NOEC (Daphnia magna)?
The NOEC was 1 mg/L.

And the LC50 (Oncorhynchus mykiss; acute, duration: 96 hours, mortality)?
Its LC50 is 2 µg/mL (≈ 6.93 µM).

What about the NOEC (Oncorhynchus mykiss; chronic/long-term, duration: 21 days, growth) of the same compound?
Its NOEC is 0.2 mg/L.

And the LD50 (Rattus norvegicus; acute, oral, M, mortality)?
The LD50 was 1600 mg/kg-day.

And the NOAEL (Rattus norvegicus; chronic, duration: 2 years, histopathology: nonneoplastic)?
The NOAEL was 2.5 mg/kg-day.

And the NOAEL (Rattus norvegicus; developmental, development)?
The NOAEL was 31 mg/kg-day.

And the NOEL (Rattus norvegicus; reproduction developmental, reproduction)?
Its NOEL is 16 mg/kg-day.

What about the LC50 (Tagia sp.; acute, mortality) of the same compound?
The LC50 was 250 mg/kg.

What about the NOEC (Tagia sp.; chronic/long-term) of the same compound?
The NOEC was 10.3 mg/kg.

What about the LEL (Typhlodromus pyri; mortality) of the same compound?
Its LEL is 36 g/ha.

And the LEL (Typhlodromus pyri; reproduction)?
Its LEL is 36 g/ha.
